The target of series [1] is CYP2C19 (Homo sapiens (Human), UniProt P33261). Briefly: CYP inhibition test (CYP2C19). The series is classed as in vitro ADME. Particulars: pooled human hepatic microsome, mephenytoin 4′-hydroxylation. As for the experimental part:
(§1) After the centrifugation at 3000 rpm for 15 minutes, resorufin (CYP1A2 metabolite) in the supernatant was quantified by a fluorescent multilabel counter and tributamide hydroxide (CYP2CP metabolite), mephenyloin 4′ hydroxide (CYP2C19 metabolite), […] (CYP2D6 metabolite), and terfenadine alcohol (CYP3A4 metabolite) were quantified by LC/MS/MS. Addition of only DMSO being a solvent dissolving a drug to a reaction system was adopted as a control (100%), remaining activity (%) was calculated at each concentration of a test drug added as the solution and […] was calculated by reverse presumption by a logistic model using a concentration and an inhibition rate.

The target of series [2] is CYP1A2 (Homo sapiens (Human), UniProt P05177). Briefly: CYP inhibition test (CYP1A2). The series is classed as in vitro ADME. To be noted: pooled human hepatic microsome, 7-ethoxyresorufin O-deethylation. As for the experimental part: as §1
Sequence of CYP1A2 (P05177 whole entry): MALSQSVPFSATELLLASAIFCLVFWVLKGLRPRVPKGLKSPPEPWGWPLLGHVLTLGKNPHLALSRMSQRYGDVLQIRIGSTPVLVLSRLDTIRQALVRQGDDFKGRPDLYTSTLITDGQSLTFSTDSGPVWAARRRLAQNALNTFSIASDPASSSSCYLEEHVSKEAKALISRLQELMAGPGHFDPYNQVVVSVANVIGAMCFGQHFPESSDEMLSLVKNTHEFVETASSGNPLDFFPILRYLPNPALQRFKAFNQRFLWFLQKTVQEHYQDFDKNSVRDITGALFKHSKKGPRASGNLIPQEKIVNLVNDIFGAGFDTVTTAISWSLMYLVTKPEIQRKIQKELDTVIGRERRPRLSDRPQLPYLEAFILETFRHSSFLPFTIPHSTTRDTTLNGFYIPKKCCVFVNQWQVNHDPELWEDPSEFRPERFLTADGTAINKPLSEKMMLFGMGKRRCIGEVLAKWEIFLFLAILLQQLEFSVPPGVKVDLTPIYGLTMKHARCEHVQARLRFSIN
The target of series [3] is Recombinant human BACE-1 (Homo sapiens (Human), UniProt P56817). As to the kind of experiment: Assay of β-secretase-inhibiting activity. Particulars: Recombinant human BACE-1 7.4 nM, substrate peptide 18 nM, pH 5.0, 30° C. for 3 hours.
Sequence of Recombinant human BACE-1 (P56817 46-501): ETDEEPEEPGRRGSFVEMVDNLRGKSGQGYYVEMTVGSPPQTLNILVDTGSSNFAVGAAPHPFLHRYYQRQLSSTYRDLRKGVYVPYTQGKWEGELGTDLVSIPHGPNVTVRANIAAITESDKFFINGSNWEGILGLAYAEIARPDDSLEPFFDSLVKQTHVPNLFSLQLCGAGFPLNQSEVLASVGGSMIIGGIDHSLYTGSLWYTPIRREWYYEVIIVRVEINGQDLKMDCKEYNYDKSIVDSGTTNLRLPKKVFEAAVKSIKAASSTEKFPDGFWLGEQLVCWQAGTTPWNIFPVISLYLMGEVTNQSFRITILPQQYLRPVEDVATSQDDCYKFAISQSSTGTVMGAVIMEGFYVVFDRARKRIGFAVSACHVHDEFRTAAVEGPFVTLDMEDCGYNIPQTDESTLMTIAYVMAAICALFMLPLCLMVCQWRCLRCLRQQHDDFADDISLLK
In series [4] the target is CYP2D6 (Homo sapiens (Human), UniProt P10635). As to the kind of experiment: CYP inhibition test (CYP2D6). The series is classed as in vitro ADME. Particulars: pooled human hepatic microsome, dextromethorphan O-demethylation. As for the experimental part:
as §1

In series [5] the target is CYP3A4 (Homo sapiens (Human), UniProt P08684). As to the kind of experiment: CYP inhibition test (CYP3A4). In kind it is in vitro ADME. To be noted: pooled human hepatic microsome, terfenedine hydroxylation. As for the experimental part: as §1
Sequence of CYP3A4 (P08684 whole entry): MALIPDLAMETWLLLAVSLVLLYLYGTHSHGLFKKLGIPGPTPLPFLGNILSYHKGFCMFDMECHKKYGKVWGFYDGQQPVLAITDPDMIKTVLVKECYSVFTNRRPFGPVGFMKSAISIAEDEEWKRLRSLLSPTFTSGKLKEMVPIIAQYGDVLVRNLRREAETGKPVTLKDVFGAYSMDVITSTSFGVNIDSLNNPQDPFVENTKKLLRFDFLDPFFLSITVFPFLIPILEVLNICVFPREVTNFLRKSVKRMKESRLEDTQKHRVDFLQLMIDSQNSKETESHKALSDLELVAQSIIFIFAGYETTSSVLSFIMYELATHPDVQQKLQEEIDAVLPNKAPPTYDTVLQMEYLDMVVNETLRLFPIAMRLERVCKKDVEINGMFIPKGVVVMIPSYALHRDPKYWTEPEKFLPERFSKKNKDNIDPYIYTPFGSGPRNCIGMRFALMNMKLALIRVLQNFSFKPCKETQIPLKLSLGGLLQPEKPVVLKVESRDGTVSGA
Series [6] deals with CYP2C9 (Homo sapiens (Human), UniProt P11712). As to the kind of experiment: CYP inhibition test (CYP2C9). Particulars: pooled human hepatic microsome, tolbutamide methyl-hydroxylation. In kind it is in vitro ADME. As for the experimental part: as §1
Sequence of CYP2C9 (P11712 whole entry): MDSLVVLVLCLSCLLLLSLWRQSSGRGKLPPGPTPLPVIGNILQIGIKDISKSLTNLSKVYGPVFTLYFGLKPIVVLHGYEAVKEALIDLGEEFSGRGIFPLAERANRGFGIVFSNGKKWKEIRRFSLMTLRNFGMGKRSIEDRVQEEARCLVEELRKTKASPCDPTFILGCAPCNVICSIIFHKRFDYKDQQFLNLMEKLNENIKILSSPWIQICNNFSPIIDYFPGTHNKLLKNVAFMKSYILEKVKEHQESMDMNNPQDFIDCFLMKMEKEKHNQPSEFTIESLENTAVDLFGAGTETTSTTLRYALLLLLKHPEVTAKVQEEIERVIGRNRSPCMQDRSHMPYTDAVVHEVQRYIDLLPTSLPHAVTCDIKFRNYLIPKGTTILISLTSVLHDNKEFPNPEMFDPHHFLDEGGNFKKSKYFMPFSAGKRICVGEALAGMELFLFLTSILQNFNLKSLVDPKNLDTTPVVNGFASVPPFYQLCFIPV
Series [7] addresses human ether-a-go-go related gene (hERG) channel (Homo sapiens (Human), UniProt Q12809). Briefly: hERG test. In kind it is cell-based. Particulars: HEK293 cells expressing hERG channel, whole cell patch clamp, concentration not given. The text has this:
For the purpose of assessing risk of an electrocardiogram QT interval prolongation, effects on delayed rectifier K+ current (IKr), which plays an important role in the ventricular repolarization process, was studied using HEK293 cells expressing human ether-a-go-go related gene (hERG) channel.
After a cell was retained at a membrane potential of −80 mV by whole cell patch clamp method using an automated patch clamp system (PatchXpress 7000A, Axon Instruments Inc.), IKr induced by depolarization pulse stimulation at +50 mV for 2 seconds and, further, repolarization pulse stimulation at −50 mV for 2 seconds was recorded. […] From the recording IKr, an absolute value of the tail peak current was measured based on the current value at the resting membrane potential using an analysis software (DataXpress ver. 1, Molecular Devices Corporation). Further, the % inhibition relative to the tail peak current before application of the test substance was calculated, and compared with the vehicle-applied group (0.1% dimethyl sulfoxide solution) to assess influence of the test substance on IKr.
(hERG is a cardiac potassium channel; its block is linked to QT prolongation.)

Structures are written as SMILES. pIC50: −log10 of the molar value.

Sequence of human ether-a-go-go related gene (hERG) channel (Q12809 whole entry): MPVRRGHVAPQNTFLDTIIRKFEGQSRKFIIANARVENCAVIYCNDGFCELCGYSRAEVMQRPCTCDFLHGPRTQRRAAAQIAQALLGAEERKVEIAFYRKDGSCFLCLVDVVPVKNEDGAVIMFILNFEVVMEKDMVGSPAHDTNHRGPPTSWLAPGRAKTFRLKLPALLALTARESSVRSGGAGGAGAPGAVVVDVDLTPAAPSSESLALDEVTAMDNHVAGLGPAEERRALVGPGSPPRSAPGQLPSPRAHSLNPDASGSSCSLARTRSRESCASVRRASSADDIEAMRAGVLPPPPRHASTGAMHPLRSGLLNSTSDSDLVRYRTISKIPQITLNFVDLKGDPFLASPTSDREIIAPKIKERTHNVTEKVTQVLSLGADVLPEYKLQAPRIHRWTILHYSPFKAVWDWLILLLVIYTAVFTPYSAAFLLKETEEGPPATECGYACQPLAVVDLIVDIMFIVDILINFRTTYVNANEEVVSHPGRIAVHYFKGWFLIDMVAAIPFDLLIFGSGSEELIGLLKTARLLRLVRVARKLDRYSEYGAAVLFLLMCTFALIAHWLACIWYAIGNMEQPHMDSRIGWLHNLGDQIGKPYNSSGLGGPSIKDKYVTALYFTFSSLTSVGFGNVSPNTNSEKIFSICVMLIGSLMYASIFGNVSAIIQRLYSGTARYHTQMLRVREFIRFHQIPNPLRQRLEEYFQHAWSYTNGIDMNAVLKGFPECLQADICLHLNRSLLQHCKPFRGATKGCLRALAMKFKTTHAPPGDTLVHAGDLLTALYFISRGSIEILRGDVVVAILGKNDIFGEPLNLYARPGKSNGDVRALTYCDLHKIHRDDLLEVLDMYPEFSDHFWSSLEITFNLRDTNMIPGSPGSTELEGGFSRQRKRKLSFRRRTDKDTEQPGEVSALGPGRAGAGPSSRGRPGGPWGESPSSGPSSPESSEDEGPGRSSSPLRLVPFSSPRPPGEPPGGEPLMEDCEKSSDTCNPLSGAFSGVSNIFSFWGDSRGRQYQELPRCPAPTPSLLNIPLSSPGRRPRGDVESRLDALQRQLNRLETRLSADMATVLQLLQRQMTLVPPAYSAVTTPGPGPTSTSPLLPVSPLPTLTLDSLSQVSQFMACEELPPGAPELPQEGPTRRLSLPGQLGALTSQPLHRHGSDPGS
Sequence of CYP2C19 (P33261 whole entry): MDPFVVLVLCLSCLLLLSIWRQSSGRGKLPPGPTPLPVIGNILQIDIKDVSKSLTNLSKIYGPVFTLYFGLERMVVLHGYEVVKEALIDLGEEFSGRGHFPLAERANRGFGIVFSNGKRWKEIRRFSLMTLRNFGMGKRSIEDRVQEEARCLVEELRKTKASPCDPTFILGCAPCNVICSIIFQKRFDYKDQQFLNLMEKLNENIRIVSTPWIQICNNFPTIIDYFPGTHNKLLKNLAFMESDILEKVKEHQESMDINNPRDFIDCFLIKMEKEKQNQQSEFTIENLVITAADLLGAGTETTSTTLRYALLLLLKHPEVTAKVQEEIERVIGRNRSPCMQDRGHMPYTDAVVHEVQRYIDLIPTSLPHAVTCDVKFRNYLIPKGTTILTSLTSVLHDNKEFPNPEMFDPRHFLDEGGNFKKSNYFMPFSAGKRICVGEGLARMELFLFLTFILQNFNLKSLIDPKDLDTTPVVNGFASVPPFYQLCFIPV
Sequence of CYP2D6 (P10635 whole entry): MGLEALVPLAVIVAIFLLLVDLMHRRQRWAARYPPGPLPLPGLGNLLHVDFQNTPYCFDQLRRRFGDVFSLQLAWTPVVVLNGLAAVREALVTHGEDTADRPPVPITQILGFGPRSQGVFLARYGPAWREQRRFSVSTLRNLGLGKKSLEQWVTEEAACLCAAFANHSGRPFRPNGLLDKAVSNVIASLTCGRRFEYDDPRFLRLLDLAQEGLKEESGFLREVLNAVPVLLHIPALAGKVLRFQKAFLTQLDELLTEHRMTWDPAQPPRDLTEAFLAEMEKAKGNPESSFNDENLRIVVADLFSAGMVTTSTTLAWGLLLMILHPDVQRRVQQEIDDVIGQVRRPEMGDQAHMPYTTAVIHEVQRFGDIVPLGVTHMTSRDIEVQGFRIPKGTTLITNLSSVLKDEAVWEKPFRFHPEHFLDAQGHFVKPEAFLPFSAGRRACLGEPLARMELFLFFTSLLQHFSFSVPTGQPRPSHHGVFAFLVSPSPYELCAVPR

What is called pIC50 is the IC50 on a negative log10 scale, so that one unit is a factor of ten. On to `Cc1cc(C(=O)Nc2ccc(F)c([C@]3(C)C=CSC(N)=N3)c2)n(C)c1` [Compound 35], for which the pIC50 in series [1] is less than 4.70; in series [2], less than 4.70; in series [3], 7.02; in series [4] it was less than 4.70; in series [5], less than 4.70; in series [6], less than 4.70.

Turning to `CNC(=O)c1ccc(-c2ccc(F)c([C@]3(C)C=CSC(N)=N3)c2)cn1` [Compound 92], the “% inhibition of IKr tail peak current” value in series [7] is 7.9%.

As to `C=C1C[C@@](C)(c2cc(NC(=O)c3cnc(OC)cn3)cnc2C)N=C(N)S1` [Compound 102], in series [7], the “% inhibition of IKr tail peak current” value is 2.3%.

(Values after US9273053B2, “Sulfur-containing heterocyclic derivative having Beta secretase inhibitory activity” (Shionogi & Co., Ltd., priority 2008, dated 2016).)
